Values quoted from earlier work, collected in US20180193304A1, “PHYTOTERPENOID FACILITATION OF THERAPEUTIC ONSET AND EFFICACY OF SUBLINGUAL CANNABINOID ADMINISTRATION” (JC Pharma Inc., priority 2017, published 2018).

Experiments:
[1] = tested on: experimental airways allergic inflammation; conditions: oral
inflammation [2] = conditions: mouse, in vivo
inflammation [3] = conditions: compared to steroid alternatives
CB2 receptor [4] = biological target: T1, CB2 receptor (Homo sapiens, UniProt P34972)
CB2 receptor [5] = biological target: T1, CB2 receptor; remark: listed apart in the source

T1 sequence (P34972 whole entry): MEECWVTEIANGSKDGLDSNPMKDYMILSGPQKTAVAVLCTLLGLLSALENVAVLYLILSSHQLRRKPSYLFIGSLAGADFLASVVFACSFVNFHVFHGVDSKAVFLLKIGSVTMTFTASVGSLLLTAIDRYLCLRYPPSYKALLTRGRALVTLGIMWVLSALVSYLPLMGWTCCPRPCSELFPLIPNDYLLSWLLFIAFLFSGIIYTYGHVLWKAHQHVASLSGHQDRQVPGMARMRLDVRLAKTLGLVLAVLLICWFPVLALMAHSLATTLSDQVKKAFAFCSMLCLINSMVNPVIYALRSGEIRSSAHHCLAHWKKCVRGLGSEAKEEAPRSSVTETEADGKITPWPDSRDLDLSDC

SMILES	reduction of inflammation [1]	reduction of inflammation and pain relief (inflammation [2])	anti-inflammatory response (inflammation [3])	binding to the CB2 receptor (CB2 receptor [4])	functional activity at CB2 receptor (CB2 receptor [5])
C/C1=C\CC/C(C)=C/CC(C)(C)/C=C/C1 [humulene]	highly effective at reducing inflammation	effective in reducing inflammation and offering pain relief	comparable anti-inflammatory responses to steroid alternatives		
C=C1CC/C=C(\C)CC[C@@H]2[C@@H]1CC2(C)C [β-caryophyllene]			comparable anti-inflammatory responses to steroid alternatives	selectively binds to the CB2 receptor	functional CB2 agonist
